We go through three compounds from article PMC11237399, “Synergistic effects of sulopenem in combination with cefuroxime or durlobactam against Mycobacterium abscessus” (mBio, 2024).

The test system of assay [1] is T1, Mycobacteroides abscessus subsp. abscessus Mab 122.
T1 construct: clinical isolate Mab122
The assay can be described thus: microbe, parasite or virus in culture. More on the design: species or system Mycobacterium abscessus clinical isolates; broth microdilution MIC in Middlebrook 7H9 with OADC and Tween 80, 30 C, 3-7 days, visible growth. The settings on record: single agent, read-out: MIC50 (μg/ml) Alone. Here is the method: (§1) Minimum inhibitory concentrations (MICs) of sulopenem and CXM were determined using microdilution. Approximately 5 × 10^5 colony-forming units (CFU) per milliliter were inoculated into Middlebrook 7H9 broth supplemented with 10% (vol/vol) oleic albumin dextrose catalase (OADC) and 0.05% (vol/vol) Tween 80. When CXM is combined with sulopenem, the CXM is added at a fixed concentration of 4 µg/mL to serial dilutions of sulopenem. Isolates were incubated with test agents at 30°C for 3–7 days, and MIC was defined as the lowest antibiotic concentration that prevented visible bacterial growth. We use active moiety compounds, like cefuroxime salt, and not cefuroxime axetil. The 54 clinical isolates analyzed in this study were obtained from deidentified patients. To ensure consistency and reliability, we specifically selected isolates from our well-characterized whole genome-sequenced clinical isolates belonging to the Mycobacterium abscessus subspecies abscessus. Of these, 34 isolates were sourced from National Jewish Health, whereas 11 and 9 isolates were obtained from University Hospitals Cleveland Medical Center and Cleveland Metrohealth, respectively. Additionally, ATCC 19977 was acquired from the American Type Culture Collection (ATCC). The active ingredient cefuroxime (CXM) salts and avibactam (AVI) were purchased from AchemBlock, sulopenem was sourced from Iterum Therapeutics, and durlobactam (DUR) was provided from Entasis Therapeutics. All β-lactams and BLIs were prepared in sterile, distilled water or in broth and filter-sterilized with a 0.22 µm PES syringe filter.

The subject of assay [2] is T2, Mycobacteroides abscessus subsp. abscessus Mab 686.
T2 construct: clinical isolate Mab686
The assay can be described thus: microbe, parasite or virus in culture. More on the design: species or system Mycobacterium abscessus clinical isolates; broth microdilution MIC in Middlebrook 7H9 with OADC and Tween 80, 30 C, 3-7 days, visible growth. The settings on record: single agent, read-out: MIC50 (μg/ml) Alone. As for the experimental part:
as §1

The target of the next assay is T3, LdtMab2 (Mycobacteroides abscessus, UniProt B1MMQ4).
T3 construct: gene MAB_1530; truncated (delta 1-41), pET28a(+), E. coli BL2 (DE3), His tag cut by TEV
T3 sequence (B1MMQ4 42-406): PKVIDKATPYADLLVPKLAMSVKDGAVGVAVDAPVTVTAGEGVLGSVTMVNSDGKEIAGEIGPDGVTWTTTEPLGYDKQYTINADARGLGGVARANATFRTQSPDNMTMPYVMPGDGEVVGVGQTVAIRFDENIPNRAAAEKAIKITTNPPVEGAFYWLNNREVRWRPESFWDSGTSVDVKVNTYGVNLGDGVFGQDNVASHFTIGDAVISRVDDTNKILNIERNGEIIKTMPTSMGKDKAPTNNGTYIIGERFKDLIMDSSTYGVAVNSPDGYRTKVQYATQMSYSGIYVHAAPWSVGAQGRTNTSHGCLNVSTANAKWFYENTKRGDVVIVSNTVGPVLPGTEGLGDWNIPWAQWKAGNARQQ
Nature of the assay: intact-protein UPLC-ESI-MS (Q-TOF). In kind it is binding. The settings on record: covalent; 1:20 enzyme:ligand, 50 mM Tris-HCl pH 7.5, 300 mM NaCl, room temperature.

A further assay deals with T4, PBP B (Mycobacteroides abscessus, UniProt B1MP31).
T4 construct: gene MAB_2000; truncated (delta 1-41), pET28a(+), E. coli BL2 (DE3), His tag cut by TEV
T4 sequence (B1MP31 42-642): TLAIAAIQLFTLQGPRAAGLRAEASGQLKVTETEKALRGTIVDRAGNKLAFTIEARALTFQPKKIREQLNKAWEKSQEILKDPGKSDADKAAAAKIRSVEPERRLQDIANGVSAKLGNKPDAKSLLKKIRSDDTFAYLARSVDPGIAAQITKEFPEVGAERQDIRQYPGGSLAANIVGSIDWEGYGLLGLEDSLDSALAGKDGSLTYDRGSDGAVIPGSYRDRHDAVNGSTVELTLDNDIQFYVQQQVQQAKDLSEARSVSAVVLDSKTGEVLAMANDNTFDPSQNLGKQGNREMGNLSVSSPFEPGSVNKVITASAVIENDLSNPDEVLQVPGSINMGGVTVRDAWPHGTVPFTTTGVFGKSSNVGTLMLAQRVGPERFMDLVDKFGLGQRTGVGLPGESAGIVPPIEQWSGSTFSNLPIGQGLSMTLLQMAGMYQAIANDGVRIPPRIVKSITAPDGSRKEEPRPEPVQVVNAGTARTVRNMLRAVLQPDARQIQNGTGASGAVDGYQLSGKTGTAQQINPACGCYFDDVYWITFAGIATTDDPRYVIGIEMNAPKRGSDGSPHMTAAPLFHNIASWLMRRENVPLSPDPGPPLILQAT
Nature of the assay: intact-protein UPLC-ESI-MS (Q-TOF). In kind it is binding. Particulars: covalent; 1:20 enzyme:ligand, 50 mM Tris-HCl pH 7.5, 300 mM NaCl, room temperature.

Where only a bound is given, the exact number is not on record here.

In the case of `C[C@@H](O)[C@H]1C(=O)N2C(C(=O)O)=C(S[C@H]3CC[S@@+]([O-])C3)S[C@H]12` [sulopenem], the MIC50 was found to be 0.5 µg/mL in assay [1] and 2 µg/mL in assay [2].
As to `NC(=O)[C@@H]1CC[C@@H]2CN1C(=O)N2OS(=O)(=O)O` [avibactam], the MIC50 in assay [1] and in assay [2] was over 128 µg/mL in each case.
`CO/N=C(\C(=O)N[C@@H]1C(=O)N2C(C(=O)O)=C(COC(N)=O)CS[C@H]12)c1ccco1` [cefuroxime]: the “intact-protein UPLC-ESI-MS (Q-TOF)” value at LdtMab2 is “CXM engaged solely with LdtMab2 and PBP B”; on PBP B, “CXM engaged solely with LdtMab2 and PBP B”. For the same compound, the figures for the MIC50 in assay [1] and in assay [2] were 4 µg/mL and 8 µg/mL, respectively.
